Values quoted from earlier work as cited in patent US20170326105A1, “MELATONIN-BASED NASAL COMPOSITIONS AND USES THEREOF” (The Lester Smith Medical Research Institute, LLC, priority 2016, published 2017).

## COc1ccc2[nH]cc(CCNC(C)=O)c2c1 [melatonin, N-acetyl-5-methoxy tryptamine]
After discontinuation of chronic dosing of less than 10 mg/day
  time for plasma levels to return to baseline: ≤ 24 h
Doses of melatonin 5 mg
  estimated peak blood levels above physiological levels: 25 times
Oral administration
  time after administration for blood plasma concentration to reach its peak: over an hour
